For assay [1], the target named is T1, FAK (GST-FAK, flag-FAK) (Homo sapiens, UniProt Q05397).
T1 construct: gene PTK2; full-length FAK, GST- or flag-tagged, produced in HEK293 cells; tags kept; endogenous HUVEC protein also pulled down
The assay is described as follows: bead pull-down of GST-FAK by flag-FAK, western blot. The class given is binding. To be noted: CF2 (10 μM) competing with 5-InsP7 (5 μM). A general note: Immunoblotting shows a protein as a band on a membrane.

For a further assay, the target named is T2, endogenous FAK (MEF) (Mus musculus, UniProt P34152).
T2 construct: gene Ptk2; endogenous full-length FAK in lysates of WT and IP6K1 KO mouse embryonic fibroblasts
Nature of the assay: affinity resin pull-down from cell lysate, western blot. To be noted: immobilised 5-PCP-InsP5 resin. The class given is biochemical.

In assay [2] the target is T1, FAK (GST-FAK, flag-FAK). Nature of the assay: affinity resin pull-down of purified protein, western blot. Format: binding. As to conditions: immobilised 5-PCP-InsP5 resin; 4 °C overnight; also endogenous protein from HUVEC lysate; free 5-PCP (10 μM) with 5-InsP7 (5 μM) in a FAK dimerization competition assay.
The target in a further assay is T3, p34 (flag-p34) (Homo sapiens, UniProt O15144).
T3 construct: gene ARPC2; tag kept; endogenous HUVEC protein also pulled down
The description is as above. Format: binding. To be noted: immobilised 5-PCP-InsP5 resin; 4 °C overnight; also endogenous protein from HUVEC lysate.

In a further assay the target is T4, coronin (GST-coronin) (Homo sapiens, UniProt Q9BR76).
T4 construct: gene CORO1B; GST-fused coronin produced in HEK293 cells, eluted with glutathione; tag kept; endogenous HUVEC protein also pulled down
The description is as above. Format: binding. As to conditions: immobilised 5-PCP-InsP5 resin; 4 °C overnight; also endogenous protein from HUVEC lysate.

T1 sequence (Q05397 2-1052): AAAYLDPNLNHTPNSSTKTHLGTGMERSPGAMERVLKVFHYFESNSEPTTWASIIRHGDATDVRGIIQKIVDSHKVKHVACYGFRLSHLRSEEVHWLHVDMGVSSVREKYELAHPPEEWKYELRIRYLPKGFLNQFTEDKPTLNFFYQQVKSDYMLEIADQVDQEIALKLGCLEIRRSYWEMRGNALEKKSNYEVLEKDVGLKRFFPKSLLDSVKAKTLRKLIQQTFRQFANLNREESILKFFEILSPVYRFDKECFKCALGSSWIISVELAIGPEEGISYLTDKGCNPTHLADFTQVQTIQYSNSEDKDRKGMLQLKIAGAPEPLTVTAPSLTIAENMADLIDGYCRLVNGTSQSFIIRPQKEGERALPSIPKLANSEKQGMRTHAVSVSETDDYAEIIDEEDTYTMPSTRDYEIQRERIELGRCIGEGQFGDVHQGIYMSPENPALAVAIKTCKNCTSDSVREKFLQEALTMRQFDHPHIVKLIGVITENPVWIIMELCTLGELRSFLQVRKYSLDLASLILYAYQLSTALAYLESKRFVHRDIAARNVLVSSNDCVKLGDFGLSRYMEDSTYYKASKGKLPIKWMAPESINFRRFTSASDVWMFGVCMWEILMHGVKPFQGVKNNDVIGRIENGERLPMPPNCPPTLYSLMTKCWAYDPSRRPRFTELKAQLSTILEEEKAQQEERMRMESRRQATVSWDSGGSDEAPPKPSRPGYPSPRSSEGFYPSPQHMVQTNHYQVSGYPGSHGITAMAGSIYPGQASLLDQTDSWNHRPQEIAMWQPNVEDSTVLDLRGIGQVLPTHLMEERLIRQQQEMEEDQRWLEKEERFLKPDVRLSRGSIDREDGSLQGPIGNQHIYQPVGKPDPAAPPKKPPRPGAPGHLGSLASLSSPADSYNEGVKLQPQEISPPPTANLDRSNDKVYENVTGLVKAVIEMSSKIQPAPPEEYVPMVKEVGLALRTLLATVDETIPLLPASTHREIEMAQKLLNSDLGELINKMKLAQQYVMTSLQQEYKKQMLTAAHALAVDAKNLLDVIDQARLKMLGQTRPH
T4 sequence (Q9BR76 whole entry, the tested form may be a part): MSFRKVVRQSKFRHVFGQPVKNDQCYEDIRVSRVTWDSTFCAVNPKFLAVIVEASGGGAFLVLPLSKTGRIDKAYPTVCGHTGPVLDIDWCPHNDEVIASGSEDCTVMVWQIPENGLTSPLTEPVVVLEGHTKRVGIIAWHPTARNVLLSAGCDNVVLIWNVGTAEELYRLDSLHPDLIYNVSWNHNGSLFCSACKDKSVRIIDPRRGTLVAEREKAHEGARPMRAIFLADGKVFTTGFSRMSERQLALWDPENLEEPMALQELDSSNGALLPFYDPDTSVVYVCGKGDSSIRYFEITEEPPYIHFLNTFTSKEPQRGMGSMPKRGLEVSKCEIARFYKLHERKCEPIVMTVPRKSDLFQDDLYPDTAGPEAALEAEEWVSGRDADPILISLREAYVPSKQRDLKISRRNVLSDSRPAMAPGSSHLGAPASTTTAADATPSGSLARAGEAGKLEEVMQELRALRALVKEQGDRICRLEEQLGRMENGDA
T2 sequence (P34152 2-1052): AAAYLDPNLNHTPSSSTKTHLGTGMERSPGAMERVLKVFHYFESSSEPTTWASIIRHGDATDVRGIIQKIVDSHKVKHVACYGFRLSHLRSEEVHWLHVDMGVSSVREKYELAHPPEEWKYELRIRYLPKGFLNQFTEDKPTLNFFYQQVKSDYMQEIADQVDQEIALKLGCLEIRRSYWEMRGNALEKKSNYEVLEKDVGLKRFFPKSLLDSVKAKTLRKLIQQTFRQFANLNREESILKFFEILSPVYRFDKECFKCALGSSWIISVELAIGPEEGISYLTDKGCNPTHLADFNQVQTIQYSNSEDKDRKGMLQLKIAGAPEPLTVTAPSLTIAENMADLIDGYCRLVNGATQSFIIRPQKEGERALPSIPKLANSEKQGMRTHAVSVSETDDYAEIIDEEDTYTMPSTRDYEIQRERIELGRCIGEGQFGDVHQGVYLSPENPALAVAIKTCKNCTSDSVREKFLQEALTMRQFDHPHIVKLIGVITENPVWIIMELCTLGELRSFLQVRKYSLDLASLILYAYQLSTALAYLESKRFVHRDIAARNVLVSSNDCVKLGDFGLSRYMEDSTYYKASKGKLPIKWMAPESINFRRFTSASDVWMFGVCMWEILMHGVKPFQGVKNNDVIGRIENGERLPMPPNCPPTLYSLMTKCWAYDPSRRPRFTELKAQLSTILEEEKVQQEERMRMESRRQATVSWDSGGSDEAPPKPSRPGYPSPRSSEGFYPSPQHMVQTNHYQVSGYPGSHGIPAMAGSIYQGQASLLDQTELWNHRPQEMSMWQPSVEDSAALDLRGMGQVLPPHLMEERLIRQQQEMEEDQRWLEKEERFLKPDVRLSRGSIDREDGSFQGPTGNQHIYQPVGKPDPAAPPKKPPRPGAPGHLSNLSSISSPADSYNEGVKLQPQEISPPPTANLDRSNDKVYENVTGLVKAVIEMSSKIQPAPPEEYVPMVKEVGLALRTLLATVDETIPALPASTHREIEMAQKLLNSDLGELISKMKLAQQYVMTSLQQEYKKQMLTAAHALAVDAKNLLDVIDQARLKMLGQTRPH

Turning to `O=C(N[C@@H]1[C@@H](OP(=O)(O)O)[C@H](OP(=O)(O)O)[C@H](OP(=O)(O)O)[C@H](OP(=O)(O)O)[C@H]1OP(=O)(O)O)C(F)(F)P(=O)(O)O` [5-PCF2Am-InsP5], the “block of 5-InsP7-mediated FAK dimerization” value at FAK (GST-FAK, flag-FAK) [1] was 5-PCP and CF2 compete with 5-InsP7 to block 5-InsP7-mediated FAK dimer formation.

For `O=P(O)(O)CP(=O)(O)O[C@H]1[C@H](OP(=O)(O)O)[C@@H](OP(=O)(O)O)[C@@H](OP(=O)(O)O)[C@@H](OP(=O)(O)O)[C@@H]1OP(=O)(O)O` [5-PCP-InsP5], the “affinity resin pull-down from cell lysate, western blot” value on endogenous FAK (MEF) is 5-PCP resin pulls down endogenous FAK in WT and IP6K1 KO MEF cells. Moreover, the “affinity resin pull-down of purified protein, western blot” value on FAK (GST-FAK, flag-FAK) [2] is 5-PCP resin pulls down purified full length (FL) FAK and FAK FERM domain; on p34 (flag-p34) it was “pulls down purified p34 and coronin in an in vitro protein binding assay”; on coronin (GST-coronin) it was “pulls down purified p34 and coronin in an in vitro protein binding assay”.

(Values after paper PMC7614367, “Itraconazole inhibits endothelial cell migration by disrupting inositol pyrophosphate-dependent focal adhesion dynamics and cytoskeletal remodeling” (Biomedicine & Pharmacotherapy, 2023).)
